Literature values as cited in article PMC5571211 (Scientific Reports, 2017).

Target: T1, LTC4S (Homo sapiens, UniProt Q16873)
T1 construct: expressed in transfected cells; host or cells: HEK293 stably expressing LTC4S (geneticin selection), microsomal fraction
T1 sequence (Q16873 1-150): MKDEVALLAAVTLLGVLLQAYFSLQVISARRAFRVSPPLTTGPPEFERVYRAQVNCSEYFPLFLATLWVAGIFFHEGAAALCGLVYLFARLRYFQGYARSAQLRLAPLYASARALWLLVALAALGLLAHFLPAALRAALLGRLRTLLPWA
Conditions: cited from earlier work

CC(C)c1ccc2c(c1)c(SC(C)(C)C)c(CC(C)(C)C(=O)O)n2Cc1ccc(Cl)cc1 [MK886, 3-[1-(4-chlorobenzyl)-3-t-butyl-thio-5-isopropylindol-2-yl]-2,2 - dimethylpropanoic acid]
inhibition of MAPEG family member LTC4S: inhibit
